Measurements as given in patent publication US5648360A, “Pentacyclic antihistamines” (Schering Corporation, priority 1994, dated 1997).

Experiments:
[1] = tested on: PAF-induced platelet aggregation; assay: In vitro PAF antagonism assay (inhibition of PAF-induced platelet aggregation in platelet-rich plasma); type: cell-based; details: human PRP, PAF 1-5×10^-8 M
Procedure: In vitro Assay: Preparation of platelet-rich plasma (PRP): Human blood (50 ml) is collected from healthy male donors in an anticoagulant solution (5 ml) containing sodium citrate (3.8%) and dextrose (2%). Blood is centrifuged at 110 x g for 15 min. and the supematant (PRP) carefully transferred into a polypropylene tube. Platelet-poor-plasma (PPP) is prepared by centrifuging PRP at 12,000 x g for 2 min. (Beckman Microfuge B). PRP is used within 3 hours of drawing the blood.
Platelet Aggregation Assay: When an aggregating agent such as PAF is added to PRP, platelets aggregate. The aggregation assays are performed using a dual-channel aggregometer (Model 440, Chrono-Log Corp., Havertown, Pa.). PRP (0.45 ml) in aggregometer cuvettes is continually stirred (37° C.). Solutions of test compounds or vehicle are added to the PRP, and after incubation for 2 min., 10-15 μl aliquots of PAF solution are added so as to achieve a final concentration of 1-5×10^-8 M. Incubations are continued until the increase in light transmission reaches a maximum (usually 2 min). Values for inhibition are calculated by comparing maximal aggregation obtained in the absence and the presence of the compound. For each experiment, a standard PAF antagonist such as alprazolam is used as a positive internal control. The inhibitory concentration (IC50) is the concentration of compound in micromoles at which 50% of the aggregation is inhibited, as measured by the light transmission through each sample of PRP as compared to PPP.

H1 = biological target: T1, H1 (Cavia porcellus, UniProt P31389); assay: In vitro H1 antihistamine activity assay (inhibition of histamine spasmogenic activity in isolated ileal segments); parameters: species or system male Hartley guinea pigs; details: guinea pig ileum, antagonist 5 min before histamine curve
T1 construct: Ileal segments were removed from male Hartley guinea pigs; from tissue; host or cells: isolated ileal segments of male Hartley guinea pigs
Procedure: In vitro assay: Ileal segments were removed from male Hartley guinea pigs (250-350 g) and suspended in 10 ml perfusion baths containing Tyrode's solution. The buffer was equilibrated with 95% O2 and 5% CO2 and maintained at a temperature of 37° C. The tissues were adjusted to 0.5-1 g tension and allowed to equilibrate for 30 min. All responses were recorded isometrically by means of a Grasse smooth muscle transducer and electronic recorder. Drugs were tested for their ability to inhibit the spasmogenic activity of histamine dihydrochloride. Two cumulative control log concentration-response curves for histamine (10^-7 -10^-5 M) were generated for each tissue. Antagonists were added to the bath and allowed to act for 5 min. before another histamine curve was generated.
Drugs were evaluated for their ability to inhibit histamine and thereby shift the response curve to the right. […] These values were used to determine relative potency.

T1 sequence (P31389 whole entry): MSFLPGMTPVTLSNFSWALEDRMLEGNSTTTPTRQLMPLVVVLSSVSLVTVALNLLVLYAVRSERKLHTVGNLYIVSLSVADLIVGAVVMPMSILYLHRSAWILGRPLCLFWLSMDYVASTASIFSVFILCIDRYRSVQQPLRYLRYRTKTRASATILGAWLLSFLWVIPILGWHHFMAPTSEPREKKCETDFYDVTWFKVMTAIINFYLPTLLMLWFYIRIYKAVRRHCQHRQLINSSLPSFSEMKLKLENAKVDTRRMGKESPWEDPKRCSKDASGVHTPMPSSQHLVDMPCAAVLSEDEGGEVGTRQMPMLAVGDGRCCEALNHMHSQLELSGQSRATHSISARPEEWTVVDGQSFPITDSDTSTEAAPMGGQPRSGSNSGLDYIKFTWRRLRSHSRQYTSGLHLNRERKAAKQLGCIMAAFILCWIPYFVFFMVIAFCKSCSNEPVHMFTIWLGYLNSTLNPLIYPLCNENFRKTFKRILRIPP

| IC50 [1] [µM] | Compound | inhibition at 50 µM [1] [%] | also measured |
| --- | --- | --- | --- |
|  | CN1CC[C@@H]2[C@H]3c4ncccc4CCc4cc(Cl)cc(c43)C(=O)[C@@H]2C1 (relative stereo) [Compound 11A] | 47 |  |
| ~300 | CC(=O)N1CC[C@H]2[C@@H](Cc3cc(Cl)cc4c3[C@@H]2c2ncccc2CC4)C1 (relative stereo) [Compound 14B] |  |  |
| ~3000 | CC(=O)N1CC[C@H]2[C@H](Cc3cc(Cl)cc4c3[C@@H]2c2ncccc2CC4)C1 (relative stereo) [Compound 14A] |  |  |
| ~2.8 | O=C(c1cc[n+]([O-])cc1)N1CC[C@H]2[C@@H](Cc3cc(Cl)cc4c3[C@@H]2c2ncccc2CC4)C1 (relative stereo) [Compound 20] |  |  |
|  | CN1CC[C@@H]2[C@H]3c4ncccc4CCc4cc(Cl)cc(c43)C(=O)[C@H]2C1 (relative stereo) [Compound 11B] | 4 |  |
|  | CC(=O)N1CC[C@@H]2C(=O)c3cc(Cl)cc4c3[C@H](c3ncccc3CC4)[C@H]2C1 (relative stereo) [Compound 6B] | 49 |  |
|  | CC(=O)N1CC[C@@H]2[C@H]3c4ncccc4CCc4cc(Cl)cc(c43)C(=O)[C@@H]2C1 (relative stereo) [Compound 10A] | 15 |  |
|  | CC(=O)N1CC[C@H]2C(=O)c3cc(Cl)cc4c3[C@H](c3ncccc3CC4)[C@H]2C1 (relative stereo) [Compound 6A] | 33 |  |
|  | CC(=O)N1CC[C@H]2C(=Cc3cc(Cl)cc4c3[C@@H]2c2ncccc2CC4)C1 (relative stereo) [Compound 13] | 23 |  |

| Compound | IC50 [1] [µM] | inhibition at 50 µM [1] [%] | also measured |
| --- | --- | --- | --- |
| CN1CC[C@H]2[C@@H](Cc3cc(Cl)cc4c3[C@@H]2c2ncccc2CC4)C1 (relative stereo) [Compound 17, 7-chloro-2,3,4,4a,5,9,10,14b,14c-decahydro-3-methylpyrido[2",3":7',6']-cyclohepta[1',2',3',:4,5]naphtho[2,3-c]pyridine] | ~38 |  | Ki (H1; read-out: dissociation constant (Ki)): 0.001 µM; Kb (H1; read-out: pA2 (converted)): 0.00141 µM |
| CN1CC[C@H]2C(=Cc3cc(Cl)cc4c3[C@@H]2c2ncccc2CC4)C1 (relative stereo) [Compound 16] | ~5.5 |  |  |
